From PubChem BioAssay AID1963864 (Molecular Pharmacology Branch, DTP, NCI, 2024)

System: KRAS PDC multicell spheroid viability
Assay: Anticancer human tumor 521955-158-R6-J3-PDC patient-derived pancreatic carcinoma cell line growth inhibition [KRAS2]
Conditions: for viability, T/C: stronger effect = lower value
Method in brief: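 KRAS-mutant tumor cells were grown as spheroids with HUVEC endothelial cells and human MSCs as stroma. Targeted agents were tested alone and with KRAS pathway inhibitors. Doses started at or near clinical Cmax, or 10 microM, descending half-log.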

[1] = curve of first compound, second compound 0.1 µM
[2] = curve of first compound, second compound 0.316 µM
[3] = curve of first compound, second compound 1 µM
[4] = curve of first compound, second compound 3.16 µM
[5] = curve of first compound, second compound 10 µM
[6] = second compound 0.1 µM, first compound 0.0316 µM
[7] = second compound 0.1 µM, first compound 0.1 µM
[8] = second compound 0.1 µM, first compound 0.316 µM
[9] = second compound 0.1 µM, first compound 1 µM
[10] = second compound 0.1 µM, first compound 3.16 µM
[11] = second compound 0.1 µM, first compound 10 µM
[12] = second compound 0.316 µM, first compound 0.0316 µM
[13] = second compound 0.316 µM, first compound 0.1 µM
[14] = second compound 0.316 µM, first compound 0.316 µM
[15] = second compound 0.316 µM, first compound 1 µM
[16] = second compound 0.316 µM, first compound 3.16 µM
[17] = second compound 0.316 µM, first compound 10 µM
[18] = second compound 1 µM, first compound 0.0316 µM
[19] = second compound 1 µM, first compound 0.1 µM
[20] = second compound 1 µM, first compound 0.316 µM
[21] = second compound 1 µM, first compound 1 µM
[22] = second compound 1 µM, first compound 3.16 µM
[23] = second compound 1 µM, first compound 10 µM
[24] = second compound 3.16 µM, first compound 0.0316 µM
[25] = second compound 3.16 µM, first compound 0.1 µM
[26] = second compound 3.16 µM, first compound 0.316 µM
[27] = second compound 3.16 µM, first compound 1 µM
[28] = second compound 3.16 µM, first compound 3.16 µM
[29] = second compound 3.16 µM, first compound 10 µM
[30] = second compound 10 µM, first compound 0.0316 µM
[31] = second compound 10 µM, first compound 0.1 µM
[32] = second compound 10 µM, first compound 0.316 µM
[33] = second compound 10 µM, first compound 1 µM
[34] = second compound 10 µM, first compound 3.16 µM
[35] = second compound 10 µM, first compound 10 µM
[36] = curve of first compound, second compound 0.0316 µM
[37] = second compound 0.0316 µM, first compound 0.0316 µM
[38] = second compound 0.0316 µM, first compound 0.1 µM
[39] = second compound 0.1 µM, first compound 0.000316 µM
[40] = second compound 0.1 µM, first compound 0.001 µM
[41] = second compound 0.1 µM, first compound 0.00316 µM
[42] = second compound 0.1 µM, first compound 0.01 µM
[43] = second compound 0.316 µM, first compound 0.000316 µM
[44] = second compound 0.316 µM, first compound 0.001 µM
[45] = second compound 0.316 µM, first compound 0.00316 µM
[46] = second compound 0.316 µM, first compound 0.01 µM
[47] = second compound 1 µM, first compound 0.000316 µM
[48] = second compound 1 µM, first compound 0.001 µM
[49] = second compound 1 µM, first compound 0.00316 µM
[50] = second compound 1 µM, first compound 0.01 µM
[51] = second compound 3.16 µM, first compound 0.000316 µM
[52] = second compound 3.16 µM, first compound 0.001 µM
[53] = second compound 3.16 µM, first compound 0.00316 µM
[54] = second compound 3.16 µM, first compound 0.01 µM
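Further: drug exposure lasted seven days.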
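Wherever viability, T/C is given: 100% = DMSO vehicle wells and lower means fewer viable cells.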

COc1cc(Nc2ncc3c(n2)-c2ccc(Cl)cc2C(c2c(F)cccc2OC)=NC3)ccc1C(=O)O + C=CC(=O)N1CCN(c2nc(=O)n(-c3c(C)ccnc3C(C)C)c3nc(-c4c(O)cccc4F)c(F)cc23)C(C)C1
IC50 [1]: > 10 µM
IC50 [2]: > 10 µM
IC50 [3]: > 10 µM
IC50 [4]: > 10 µM
IC50 [5]: > 10 µM
viability, T/C [6]: 109%
viability, T/C [7]: 103%
viability, T/C [8]: 102%
viability, T/C [9]: 92.6%
viability, T/C [10]: 89.1%
viability, T/C [11]: 89.8%
viability, T/C [12]: 100%
viability, T/C [13]: 108%
viability, T/C [14]: 99.4%
viability, T/C [15]: 79.6%
viability, T/C [16]: 82.9%
viability, T/C [17]: 82.1%
viability, T/C [18]: 93.2%
viability, T/C [19]: 103%
viability, T/C [20]: 94.7%
viability, T/C [21]: 95.6%
viability, T/C [22]: 86.3%
viability, T/C [23]: 80.5%
viability, T/C [24]: 91.3%
viability, T/C [25]: 89.9%
viability, T/C [26]: 77.4%
viability, T/C [27]: 78.6%
viability, T/C [28]: 84.6%
viability, T/C [29]: 79%
viability, T/C [30]: 71.5%
viability, T/C [31]: 77.9%
viability, T/C [32]: 70.6%
viability, T/C [33]: 62.4%
viability, T/C [34]: 54.2%
viability, T/C [35]: 58.3%

COc1cc(Nc2ncc3c(n2)-c2ccc(Cl)cc2C(c2c(F)cccc2OC)=NC3)ccc1C(=O)O + CC1OCC2(CCN(c3cnc(Sc4ccnc(N)c4Cl)c(N)n3)CC2)C1N
IC50 [1]: > 10 µM
IC50 [2]: > 10 µM
IC50 [3]: > 10 µM
IC50 [4]: > 10 µM
IC50 [5]: > 10 µM
viability, T/C [6]: 101%
viability, T/C [7]: 101%
viability, T/C [8]: 99.8%
viability, T/C [9]: 82.2%
viability, T/C [10]: 99.8%
viability, T/C [11]: 95.8%
viability, T/C [12]: 97.1%
viability, T/C [13]: 95.1%
viability, T/C [14]: 95.6%
viability, T/C [15]: 86.6%
viability, T/C [16]: 81.3%
viability, T/C [17]: 87.9%
viability, T/C [18]: 102%
viability, T/C [19]: 98.5%
viability, T/C [20]: 88.1%
viability, T/C [21]: 91.7%
viability, T/C [22]: 90.9%
viability, T/C [23]: 98%
viability, T/C [24]: 103%
viability, T/C [25]: 105%
viability, T/C [26]: 97.9%
viability, T/C [27]: 103%
viability, T/C [28]: 104%
viability, T/C [29]: 93.4%
viability, T/C [30]: 113%
viability, T/C [31]: 101%
viability, T/C [32]: 103%
viability, T/C [33]: 96.5%
viability, T/C [34]: 103%
viability, T/C [35]: 91.5%

O=C(c1cc(Cc2n[nH]c(=O)c3ccccc23)ccc1F)N1CCN(C(=O)C2CC2)CC1 + C=CC(=O)N1CCN(c2nc(OCC3CCCN3C)nc3c2CCN(c2cccc4cccc(C)c24)C3)CC1CC#N
IC50 [36]: > 10 µM
IC50 [1]: > 10 µM
IC50 [2]: > 10 µM
IC50 [3]: > 10 µM
IC50 [4]: < 0.0316 µM
viability, T/C [37]: 90%
viability, T/C [38]: 97%
viability, T/C (second compound 0.0316 µM, first compound 0.316 µM): 96.7%
viability, T/C (second compound 0.0316 µM, first compound 1 µM): 96.4%
viability, T/C (second compound 0.0316 µM, first compound 3.16 µM): 89.4%
viability, T/C (second compound 0.0316 µM, first compound 10 µM): 111%
viability, T/C [6]: 97.9%
viability, T/C [7]: 96.4%
viability, T/C [8]: 97.5%
viability, T/C [9]: 83.5%
viability, T/C [10]: 87.5%
viability, T/C [11]: 101%
viability, T/C [12]: 97.5%
viability, T/C [13]: 107%
viability, T/C [14]: 103%
viability, T/C [15]: 84.9%
viability, T/C [16]: 87.3%
viability, T/C [17]: 93.6%
viability, T/C [18]: 89.9%
viability, T/C [19]: 95.3%
viability, T/C [20]: 79%
viability, T/C [21]: 73.4%
viability, T/C [22]: 86.2%
viability, T/C [23]: 90.5%
viability, T/C [24]: 42.9%
viability, T/C [25]: 31.2%
viability, T/C [26]: 24.1%
viability, T/C [27]: 24.4%
viability, T/C [28]: 39.9%
viability, T/C [29]: 12.4%

CC(=O)OC12COC1CC(O)C1(C)C(=O)C(O)C3=C(C)C(OC(=O)C(O)C(NC(=O)OC(C)(C)C)c4ccccc4)CC(O)(C(OC(=O)c4ccccc4)C21)C3(C)C (configuration not stated)
viability, T/C (compound 0.01 µM): 87.1% [middle of 5 runs]
viability, T/C (compound 0.0316 µM): 77.4% [middle of 5 runs]
viability, T/C (compound 0.1 µM): 73.6% [middle of 5 runs]
viability, T/C (compound 0.316 µM): 86.8% [middle of 5 runs]
viability, T/C (compound 1 µM): 101% [middle of 5 runs]
viability, T/C (compound 3.16 µM): 119% [middle of 5 runs]
IC50 (curve of compound): > 3.16 µM

Cn1ncnc1[C@H]1c2n[nH]c(=O)c3cc(F)cc(c23)N[C@@H]1c1ccc(F)cc1
viability, T/C (compound 0.000316 µM): 91.8% [middle of 5 runs]
viability, T/C (compound 0.001 µM): 95.2% [middle of 5 runs]
viability, T/C (compound 0.01 µM): 104% [middle of 5 runs]
viability, T/C (compound 0.1 µM): 89.8% [middle of 5 runs]
IC50 (curve of compound): > 0.1 µM

CN(C)C/C=C/C(=O)Nc1cc2c(Nc3ccc(F)c(Cl)c3)ncnc2cc1O[C@H]1CCOC1 + C=CC(=O)N1CCN(c2nc(OCC3CCCN3C)nc3c2CCN(c2cccc4cccc(C)c24)C3)CC1CC#N
IC50 [36]: > 0.1 µM
IC50 [1]: > 0.1 µM
IC50 [2]: > 0.1 µM
IC50 [3]: > 0.1 µM
IC50 [4]: < 0.000316 µM
viability, T/C (second compound 0.0316 µM, first compound 0.000316 µM): 108%
viability, T/C (second compound 0.0316 µM, first compound 0.001 µM): 92.2%
viability, T/C (second compound 0.0316 µM, first compound 0.00316 µM): 81.8%
viability, T/C (second compound 0.0316 µM, first compound 0.01 µM): 72.4%
viability, T/C [37]: 66%
viability, T/C [38]: 66.8%
viability, T/C [39]: 97.2%
viability, T/C [40]: 93.8%
viability, T/C [41]: 89.6%
viability, T/C [42]: 64.7%
viability, T/C [6]: 72.4%
viability, T/C [7]: 61.8%
viability, T/C [43]: 99.9%
viability, T/C [44]: 92.2%
viability, T/C [45]: 91%
viability, T/C [46]: 78.7%
viability, T/C [12]: 68%
viability, T/C [13]: 67.6%
viability, T/C [47]: 91.9%
viability, T/C [48]: 93.4%
viability, T/C [49]: 81.3%
viability, T/C [50]: 63.4%
viability, T/C [18]: 64.1%
viability, T/C [19]: 64.5%
viability, T/C [51]: 48.5%
viability, T/C [52]: 32.9%
viability, T/C [53]: 15.2%
viability, T/C [54]: 12.7%
viability, T/C [24]: 12.8%
viability, T/C [25]: 23.1%

Cn1ncnc1[C@H]1c2n[nH]c(=O)c3cc(F)cc(c23)N[C@@H]1c1ccc(F)cc1 + COc1cc2nc(C)nc(NC(C)c3cc(N)cc(C(F)(F)F)c3)c2cc1OC1CCOC1
IC50 [1]: > 0.1 µM
IC50 [2]: > 0.1 µM
IC50 [3]: > 0.1 µM
IC50 [4]: > 0.1 µM
IC50 [5]: < 0.000316 µM
viability, T/C [39]: 96.2%
viability, T/C [40]: 94.9%
viability, T/C [41]: 86.8%
viability, T/C [42]: 87.8%
viability, T/C [6]: 94%
viability, T/C [7]: 93.1%
viability, T/C [43]: 90.5%
viability, T/C [44]: 92.6%
viability, T/C [45]: 86.7%
viability, T/C [46]: 87.8%
viability, T/C [12]: 87.3%
viability, T/C [13]: 84.2%
viability, T/C [47]: 83.2%
viability, T/C [48]: 78.3%
viability, T/C [49]: 80.5%
viability, T/C [50]: 86.6%
viability, T/C [18]: 82.3%
viability, T/C [19]: 82.6%
viability, T/C [51]: 68.2%
viability, T/C [52]: 73.9%
viability, T/C [53]: 71.5%
viability, T/C [54]: 72.3%
viability, T/C [24]: 71.8%
viability, T/C [25]: 74.9%
viability, T/C (second compound 10 µM, first compound 0.000316 µM): 23.4%
viability, T/C (second compound 10 µM, first compound 0.001 µM): 27.8%
viability, T/C (second compound 10 µM, first compound 0.00316 µM): 9.47%
viability, T/C (second compound 10 µM, first compound 0.01 µM): 25.1%
viability, T/C [30]: 8.29%
viability, T/C [31]: 16%
